From patent US20040009955A1, “Method of prophylaxis” (priority 2002, published 2004)

Tested on: MT-1 breast cancer cells
Experiment: Symptom free survival of nude rats inoculated with MT-1 breast cancer cells (treatment efficacy against skeletal metastases)
Assay type: in vivo, nude rats (Han: rnu/rnu Rowett)
Details: for increase in survival relative to the control: Wilcoxon rank sum test
[1] = Without Aredia, 300 kBq/ka ^223Ra (regimen A)

Protocol: The effect of ^223Ra in prolonging symptom free survival of rate was studied for two treatment regimens [A] comparative and [B] according to the invention.
Treatment regimen [A]: Animals were treated seven days after tumor cell inoculation. At this time animal body weights varied between 80 and 110 grams and animals were randomized in groups so the average weight for a group was about 100 g at the time of treatment. The treatment groups received 11 or 30 kBq of ^223Ra administered by tail vein injection while animals in the control group were injected with an equivalent volume of 5 mM sodium citrate solution.
Treatment regimen [B]: 3-Amino-1-hydroxypropylidene bisphosphonate, di-sodium salt (Aredia™, Novartis AG, Switzerland), was added as a supplemental treatment to ^223Ra. Animals in the treatment groups were treated on day 7 after tumor cell inoculation with 10 or 30 kBq of ^223Ra. The following day, 1.5 mg/kg b.w. of Aredia™, was administered by i.v. injection. Animals in the control group received 5 mM sodium citrate solution on day 7 and 1.5 mg/kg b.w. of Aredia™ on day 8.
Symptom free animals were followed for at least 50 days after the treatment. The significance of treatment response was related to symptom free survival and evaluated using the Wilcoxon rank sum test.

[223Ra] [^223Ra, radium-223]
survival improvement compared to the control group (60 kBq ^223Ra, regimen A): not significant
symptom free survivors (60 kBq ^223Ra, regimen A (1/5)): 20%
symptom free survivors beyond 50 days (100 kBq/kg ^223Ra, regimen A (5/14)): 36%
increase in survival relative to the control (100 kBq/kg ^223Ra, regimen A): significant at the 1% level
increase in survival compared to the control group, groups taken together (100 kBq/kg and 300 kBq/kg ^223Ra groups taken together, regimen A, P <0.05): significant
increase in survival relative to the control (300 kBq/kg ^223Ra, regimen A): significant at the 1% level
Survival beyond 67 day (Without Aredia, 100 kBq/kg ^223Ra (regimen A)): 33%
Mean survival (Without Aredia, 100 kBq/kg ^223Ra i.v. day 7 after tumor cell inoculation (regimen A)): 38 days
Survival beyond 67 day [1]: 0%
Survival range [1]: 27-61
Mean survival (Without Aredia, 300 kBq/ka ^223Ra i.v. day 7 (regimen A)): 38 days
